Measured values from patent US9253983B2, “Triazole compound and use thereof” (KUREHA CORPORATION, priority 2011, dated 2016).

Experiments:
Microdochium nivale = assay: Test 1 for antifungal effect, plate medium: M.n; type: cell-based; conditions: PDA plate medium
Protocol: (§1) Compound (1-1a) or Compound (1-2a) was dissolved in dimethyl sulfoxide, and the resulting solution was added to a PDA medium (potato dextrose-agar medium) at about 60° C. The medium and the solution were mixed thoroughly in a conical flask, poured into a petri dish, and allowed to solidify. In this way, a plate medium containing Compound (1-1a) or Compound (1-2a) at a certain concentration was prepared.
(§2) Meanwhile, test microorganisms cultured on a plate medium in advance were cut out with the use of a cork borer 4 mm in diameter, and were inoculated onto the compound-containing plate medium. After the inoculation, the microorganisms were cultured at their optimum growth temperatures (for example, refer to LIST OF CULTURES 1996 microorganisms 10th edition, Institute for Fermentation (foundation)) for 1 day to 7 days, and their growth was determined by measuring the diameter of their flora. The extent of growth of the microorganisms on the compound-containing plate medium was compared with that of microorganisms on a plate medium where no compound was added, and mycelial growth inhibition rate was calculated by the following equation: R=100(dc−dt)/dc where R is mycelial growth inhibition rate (%), dc is the flora diameter in untreated plate, and dt is the flora diameter in plate treated with the compound.
(§3) A larger antifungal index indicates a better antifungal effect.

Ustilago nuda = assay: Test 2 for antifungal effect, plate medium: U.n; type: cell-based; conditions: PDA plate medium
Protocol: as §1, with “(1-1b)” for “(1-1a)”, “(1-2b)” for “(1-2a)”
(§4) Meanwhile, test microorganisms cultured on a plate medium in advance were cut out with the use of a cork borer 4 mm in diameter, and were inoculated onto the compound-containing plate medium. After the inoculation, the pathogens were cultured at their optimum growth temperatures (for example, refer to LIST OF CULTURES 1996 microorganisms 10th edition, Institute for Fermentation (foundation)) for 1 day to 7 days, and their growth was determined by measuring the diameter of their flora. The extent of growth of the pathogens on the compound-containing plate medium was compared with that of pathogens on a plate medium where no compound was added, and mycelial growth inhibition rate was calculated as in Experiment Example 10. Note that, in Experiment Example 11, controls used in the antifungal effect tests are Compound (1-1a) and Compound (1-2a) instead of Compound (1-1b) and Compound (1-2b), respectively.
(§5) The results were rated on a 1-to-5 scale as in Experiment Example 10.

Gaeumannomyces graminis = assay: Test 1 for antifungal effect, plate medium: G.g; type: cell-based; conditions: PDA plate medium
Protocol: as §1, §2, §3

Penicillium italicum = assay: Test 2 for antifungal effect, plate medium: P.i; type: cell-based; conditions: PDA plate medium
Protocol: as §1, with “(1-1b)” for “(1-1a)”, “(1-2b)” for “(1-2a)”
as §4, §5

wheat = assay: Growth inhibition (adverse effects) of seed treatment on wheat seeds; type: in vivo; conditions: for Growth inhibition index: wheat, 20 days after sowing
Protocol: A pot experiment was performed to evaluate the growth inhibition (adverse effects) caused by the seed treatment. Compound (1-1a) and Compound (1-2a), each of which was dissolved in DMSO to make up such a concentration that the seeds would be treated in treatment amount of 2 g to 200 g ai/100 kg seeds, were each applied to wheat seeds in a vial, and thereafter 8 wheat seeds were sowed in an 80-cm^2 pot. The pot was kept in a greenhouse with water supplied to its bottom. 20 days after the sowing, a growth measure of wheat was evaluated. A growth inhibition index was calculated based on the criteria shown by Table 10. In Table 10, a smaller growth inhibition index indicates a lesser adverse effect of growth inhibition caused by the treatment with the use of a plant disease controlling agent.

Phaeosphaeria nodorum = assay: Test 1 for antifungal effect, plate medium: P.n; type: cell-based; conditions: PDA plate medium
Protocol: as §1, §2, §3

Gibberella fujikuroi = assay: Test 1 for antifungal effect, plate medium: G.f; type: cell-based; conditions: PDA plate medium
Protocol: as §1, §2, §3

Sclerotinia sclerotiorum = assay: Test 1 for antifungal effect, plate medium: S.s; type: cell-based; conditions: PDA plate medium
Protocol: as §1, §2, §3

Fusarium oxysporum = assay: Test 2 for antifungal effect, plate medium: F.c; type: cell-based; conditions: PDA plate medium
Protocol: as §1, with “(1-1b)” for “(1-1a)”, “(1-2b)” for “(1-2a)”
as §4, §5

Septoria tritici = assay: Test 2 for antifungal effect, plate medium: S.t; type: cell-based; conditions: PDA plate medium
Protocol: as §1, with “(1-1b)” for “(1-1a)”, “(1-2b)” for “(1-2a)”
as §4, §5

SMILES: CC1(CCl)CCC(Cc2ccc(F)cc2)C1(O)Cn1cncn1 (single isomer, unassigned) [Compound (1-2b), (1,2-cis, 1,5-cis)-5-(4-fluorobenzyl)-2-chloromethyl-2-methyl-1-(1H-1,2,4-triazole-1-ylmethyl)cyclopentanol]
- Antifungal index (mycelial growth inhibition rate) (Microdochium nivale; 0.16 mg/L): 1 (Less than 60%)
- Antifungal index (mycelial growth inhibition rate) (Microdochium nivale; 0.31 mg/L): 1 (Less than 60%)
- Antifungal index (mycelial growth inhibition rate) (Microdochium nivale; 0.63 mg/L): 1 (Less than 60%)
- Antifungal index (mycelial growth inhibition rate) (Microdochium nivale; 1.25 mg/L): 1 (Less than 60%)
- Antifungal index (mycelial growth inhibition rate) (Microdochium nivale; 2.50 mg/L): 2 (Less than 70% but not less than 60%)
- Antifungal index (mycelial growth inhibition rate) (Ustilago nuda; 0.04 mg/L): 1 (Less than 60%)
- Antifungal index (mycelial growth inhibition rate) (Ustilago nuda; 0.08 mg/L): 1 (Less than 60%)
- Antifungal index (mycelial growth inhibition rate) (Ustilago nuda; 0.16 mg/L): 2 (Less than 70% but not less than 60%)
- Antifungal index (mycelial growth inhibition rate) (Ustilago nuda; 0.31 mg/L): 4 (Less than 90% but not less than 80%)
- Antifungal index (mycelial growth inhibition rate) (Ustilago nuda; 0.63 mg/L): 4 (Less than 90% but not less than 80%)
- Antifungal index (mycelial growth inhibition rate) (Ustilago nuda; 1.25 mg/L): 5 (90% or greater)
- Antifungal index (mycelial growth inhibition rate) (Gaeumannomyces graminis; 0.16 mg/L): 1 (Less than 60%)
- Antifungal index (mycelial growth inhibition rate) (Gaeumannomyces graminis; 0.31 mg/L): 1 (Less than 60%)
- Antifungal index (mycelial growth inhibition rate) (Gaeumannomyces graminis; 0.63 mg/L): 4 (Less than 90% but not less than 80%)
- Antifungal index (mycelial growth inhibition rate) (Gaeumannomyces graminis; 1.25 mg/L): 5 (90% or greater)
- Antifungal index (mycelial growth inhibition rate) (Gaeumannomyces graminis; 2.50 mg/L): 5 (90% or greater)
- Antifungal index (mycelial growth inhibition rate) (Penicillium italicum; 0.04 mg/L): 1 (Less than 60%)
- Antifungal index (mycelial growth inhibition rate) (Penicillium italicum; 0.08 mg/L): 4 (Less than 90% but not less than 80%)
- Antifungal index (mycelial growth inhibition rate) (Penicillium italicum; 0.16 mg/L): 5 (90% or greater)
- Antifungal index (mycelial growth inhibition rate) (Penicillium italicum; 0.31 mg/L): 5 (90% or greater)
- Antifungal index (mycelial growth inhibition rate) (Penicillium italicum; 0.63 mg/L): 5 (90% or greater)
- Antifungal index (mycelial growth inhibition rate) (Penicillium italicum; 1.25 mg/L): 5 (90% or greater)
- Growth of the treated seeds (wheat; wheat seed treatment 20 g ai/100 kg seeds (seen in the brown rust seed treatment test)): inhibited
- Growth inhibition index (wheat; treatment amount 2 g ai/100 kg seeds): 0 (50% or more)
- Growth inhibition index (wheat; treatment amount 20 g ai/100 kg seeds): 4 (Less than 20% but 10% or more)
- Growth inhibition index (wheat; treatment amount 200 g ai/100 kg seeds): 5 (Less than 10%)
- Antifungal index (mycelial growth inhibition rate) (Phaeosphaeria nodorum; 0.16 mg/L): 1 (Less than 60%)
- Antifungal index (mycelial growth inhibition rate) (Phaeosphaeria nodorum; 0.31 mg/L): 1 (Less than 60%)
- Antifungal index (mycelial growth inhibition rate) (Phaeosphaeria nodorum; 0.63 mg/L): 2 (Less than 70% but not less than 60%)
- Antifungal index (mycelial growth inhibition rate) (Phaeosphaeria nodorum; 1.25 mg/L): 3 (Less than 80% but not less than 70%)
- Antifungal index (mycelial growth inhibition rate) (Phaeosphaeria nodorum; 2.50 mg/L): 5 (90% or greater)
- Antifungal index (mycelial growth inhibition rate) (Gibberella fujikuroi; 0.16 mg/L): 3 (Less than 80% but not less than 70%)
- Antifungal index (mycelial growth inhibition rate) (Gibberella fujikuroi; 0.31 mg/L): 4 (Less than 90% but not less than 80%)
- Antifungal index (mycelial growth inhibition rate) (Gibberella fujikuroi; 0.63 mg/L): 5 (90% or greater)
- Antifungal index (mycelial growth inhibition rate) (Gibberella fujikuroi; 1.25 mg/L): 5 (90% or greater)
- Antifungal index (mycelial growth inhibition rate) (Gibberella fujikuroi; 2.50 mg/L): 5 (90% or greater)
- Antifungal index (mycelial growth inhibition rate) (Sclerotinia sclerotiorum; 0.16 mg/L): 3 (Less than 80% but not less than 70%)
- Antifungal index (mycelial growth inhibition rate) (Sclerotinia sclerotiorum; 0.31 mg/L): 5 (90% or greater)
- Antifungal index (mycelial growth inhibition rate) (Sclerotinia sclerotiorum; 0.63 mg/L): 5 (90% or greater)
- Antifungal index (mycelial growth inhibition rate) (Sclerotinia sclerotiorum; 1.25 mg/L): 5 (90% or greater)
- Antifungal index (mycelial growth inhibition rate) (Sclerotinia sclerotiorum; 2.50 mg/L): 5 (90% or greater)
- Antifungal index (mycelial growth inhibition rate) (Fusarium oxysporum; 0.04 mg/L): 1 (Less than 60%)
- Antifungal index (mycelial growth inhibition rate) (Fusarium oxysporum; 0.08 mg/L): 2 (Less than 70% but not less than 60%)
- Antifungal index (mycelial growth inhibition rate) (Fusarium oxysporum; 0.16 mg/L): 3 (Less than 80% but not less than 70%)
- Antifungal index (mycelial growth inhibition rate) (Fusarium oxysporum; 0.31 mg/L): 4 (Less than 90% but not less than 80%)
- Antifungal index (mycelial growth inhibition rate) (Fusarium oxysporum; 0.63 mg/L): 5 (90% or greater)
- Antifungal index (mycelial growth inhibition rate) (Fusarium oxysporum; 1.25 mg/L): 5 (90% or greater)
- Antifungal index (mycelial growth inhibition rate) (Septoria tritici; 0.04 mg/L): 2 (Less than 70% but not less than 60%)
- Antifungal index (mycelial growth inhibition rate) (Septoria tritici; 0.08 mg/L): 5 (90% or greater)
- Antifungal index (mycelial growth inhibition rate) (Septoria tritici; 0.16 mg/L): 5 (90% or greater)
- Antifungal index (mycelial growth inhibition rate) (Septoria tritici; 0.31 mg/L): 5 (90% or greater)
- Antifungal index (mycelial growth inhibition rate) (Septoria tritici; 0.63 mg/L): 5 (90% or greater)
- Antifungal index (mycelial growth inhibition rate) (Septoria tritici; 1.25 mg/L): 5 (90% or greater)
